Columns and labels:
[1] = Intraperitoneal glucose tolerance test and plasma insulin (in vivo); set-up: species or system mice; details: for effect on blood glucose concentration compared to control: glucose tolerance test in vivo
Description: (A) n=8 mice for control and n=7 mice for Kom56, (D) n=8 mice each. (B,E) Blood glucose concentrations of mice during i.p. glucose tolerance tests with 1.5 mg/g BW glucose with or without i.p. compound administration. n=8 mice each. (C,F) AUC0-120min calculation of blood glucose concentrations of B,E. Statistical testing: (A,D) two-way ANOVA followed by Sidak's multiple comparison test. (B,C,E,F) unpaired two-sided Student's t-test. All values are shown with mean±SEM, except for glucose tolerance tests (B,E), in which all values are mean±SD.
Further, glucose tolerance tests (in vivo) were performed, if the corresponding in vitro assays were “positive”.
Glucose tolerance tests for the compounds were performed like in paragraph [0209].

[2] = target: T1, potassium voltage-gated channel subfamily H member 2 (hERG) (Homo sapiens, UniProt Q12809); assay: hERG channel binding assay ([3H] Dofetilide); details: SafetyScreen44 Panel, test concentration 1.0 10^−5 M
T1 construct: expressed in transfected cells; host or cells: HEK-293
Description: (§1) For the hERG channel binding assay, compound binding was calculated as % inhibition of the binding of a radioactively labeled ligand that is specific for the target (i.e., [3H] Dofetilide). HEK-293 cells (human embryonic kidney cells) were used for these binding assays. The compounds were tested at a concentration of 10 μM and 2 repetitions were conducted for each compound.

μ-opioid (MOP) receptor = μ-opioid (MOP) receptor (Homo sapiens, UniProt P35372); assay: MOP receptor inhibition, SafetyScreen44 Panel; type: binding; details: test concentration 1.0 10^−5 M
mouse pancreatic islets [3] = assay: Insulin secretion assay on isolated pancreatic islets (in vitro); type: cell-based; details: low (2 mM) and high glucose (20 mM), FIG. 1
Description: Statistical testing: two-way ANOVA followed by Sidak's multiple comparison test. All values are shown with mean±SEM.
Further, insulin secretion assays (in vitro) were performed.
Insulin secretion assays for the compounds were performed like in paragraph [0208].

[4] = Oral glucose tolerance test and plasma insulin (in vivo); details: mice, FIG. 3
Description: (B) Blood glucose concentrations of mice during oral glucose tolerance test with 1.5 mg/g BW glucose with or without p.o. compound administration. n=7 mice for control and n=8 mice for Kom56. (C) AUC0-120min calculation of blood glucose concentrations of B. Statistical testing: (A) two-way ANOVA followed by Sidak's multiple comparison test. (B,C) unpaired two-sided Student's t-test. All values are shown with mean±SEM, except for glucose tolerance test (B), in which all values are mean±SD.

[5] = Von Frey monofilament paw withdrawal test; type: in vivo; details: mice, i.p. administration, paw withdrawal thresholds versus PBS, FIG. 5
Source text: (A) Force that is needed to reach a 50% threshold, and (B) force that is needed to reach a 75% threshold in paw withdrawal. n=6 mice each. Statistical testing: (A,B) unpaired two-sided Student's t-test. All values are shown with mean±SEM.

mouse pancreatic islets [6] = assay: Islet cell death induced by oxidative stress (H2O2), flow cytometry; type: cell-based; details: 150 μM H2O2, 1 and 0.1 μM Kom56, 24 h, FIG. 6
Description: (A) Healthy control, (B) pancreatic islets incubated with 150 μM H2O2, (C) 150 μM H2O2 plus 1 μM Kom56, and (D) 150 μM H2O2 plus 0.1 μM Kom56. Analyzed by flow cytometry. Pancreatic islets were dissociated using trypsin and stained with Fixable Viability Stain 660 (FVS660). FVS660+=dead cells, FVS660-=living cells, values are shown in %.

mouse pancreatic islets [7] = assay: Streptozotocin-induced islet cell death; type: cell-based; details: 2 mM streptozotocin, 1 μM Kom56, 24 h, FIG. 7
Source text: Blue (Hoechst), nuclei; red (ethidium homodimer1), dead cells; green (calcein), viable cells. (B) Area of dead cells in mouse islets treated as described in A. n=4 islet batches each with 11-14 islets per batch for each group. Statistical testing: (B) one-way ANOVA followed by Tukey's multiple comparison test. All values are shown with mean±SEM. (A) Scale bars, 50 μm.

[8] = target: T2, hERG (potassium voltage-gated channel subfamily H member 2) (Homo sapiens, UniProt Q12809); assay: hERG channel binding assay ([3H] Dofetilide); details: human, HEK-293 cells (hERG channel binding assay), probe [3H] Dofetilide; 10 μM, [3H] Dofetilide, HEK-293 cells, 2 repetitions; read-out: hERG inhibition (% inhibition of the binding of a ligand specific for the target)
T2 construct: expressed in transfected cells; host or cells: HEK-293
Description: as §1

[9] = system: SafetyScreen44™ Panel with all 44 targets; assay: SafetyScreen44 Panel toxicological test; details: test concentration 1.0 10^−5 M
Description: Inhibition of potassium voltage-gated channel subfamily H member 2 (hERG) of the compounds was measured as in the SafetyScreen44™ Panel (see Example 3). The hERG channel binding assay is part of the SafetyScreen44™ Panel, but can also be conducted solely. The entire SafetyScreen44™ Panel with all 44 targets was just conducted for the three compounds as shown in [0206], for the other molecules just the hERG inhibition was measured.

T1 sequence (Q12809 whole entry): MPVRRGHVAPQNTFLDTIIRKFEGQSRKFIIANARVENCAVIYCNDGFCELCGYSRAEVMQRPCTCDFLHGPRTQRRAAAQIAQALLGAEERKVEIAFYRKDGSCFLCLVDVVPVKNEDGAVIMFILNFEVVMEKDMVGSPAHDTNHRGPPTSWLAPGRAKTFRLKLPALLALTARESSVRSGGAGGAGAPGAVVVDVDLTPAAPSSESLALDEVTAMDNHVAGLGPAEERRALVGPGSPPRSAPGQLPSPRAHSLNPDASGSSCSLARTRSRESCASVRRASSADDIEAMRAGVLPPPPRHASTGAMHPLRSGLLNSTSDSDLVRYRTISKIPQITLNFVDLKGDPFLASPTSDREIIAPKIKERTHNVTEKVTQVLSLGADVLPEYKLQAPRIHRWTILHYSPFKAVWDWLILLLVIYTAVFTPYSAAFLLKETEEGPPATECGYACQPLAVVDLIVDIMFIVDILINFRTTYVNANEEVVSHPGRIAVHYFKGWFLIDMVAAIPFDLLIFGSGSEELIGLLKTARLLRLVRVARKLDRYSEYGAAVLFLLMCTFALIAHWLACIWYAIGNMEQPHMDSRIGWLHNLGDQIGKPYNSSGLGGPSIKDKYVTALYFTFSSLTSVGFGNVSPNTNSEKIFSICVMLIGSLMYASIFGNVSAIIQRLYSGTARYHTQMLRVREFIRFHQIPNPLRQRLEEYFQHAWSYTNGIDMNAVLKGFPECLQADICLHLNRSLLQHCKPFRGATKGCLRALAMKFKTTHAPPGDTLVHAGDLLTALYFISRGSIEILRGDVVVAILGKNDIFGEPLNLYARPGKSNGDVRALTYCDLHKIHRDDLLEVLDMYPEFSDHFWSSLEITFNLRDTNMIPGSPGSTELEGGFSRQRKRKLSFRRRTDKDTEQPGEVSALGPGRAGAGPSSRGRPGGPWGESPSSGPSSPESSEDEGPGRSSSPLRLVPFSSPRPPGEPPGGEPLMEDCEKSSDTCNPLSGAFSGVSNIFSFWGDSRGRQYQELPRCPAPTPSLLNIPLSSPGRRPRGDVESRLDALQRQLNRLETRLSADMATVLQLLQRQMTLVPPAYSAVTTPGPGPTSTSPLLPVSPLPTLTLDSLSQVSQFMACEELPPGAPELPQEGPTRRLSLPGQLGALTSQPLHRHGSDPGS
μ-opioid (MOP) receptor, sequence (P35372 whole entry): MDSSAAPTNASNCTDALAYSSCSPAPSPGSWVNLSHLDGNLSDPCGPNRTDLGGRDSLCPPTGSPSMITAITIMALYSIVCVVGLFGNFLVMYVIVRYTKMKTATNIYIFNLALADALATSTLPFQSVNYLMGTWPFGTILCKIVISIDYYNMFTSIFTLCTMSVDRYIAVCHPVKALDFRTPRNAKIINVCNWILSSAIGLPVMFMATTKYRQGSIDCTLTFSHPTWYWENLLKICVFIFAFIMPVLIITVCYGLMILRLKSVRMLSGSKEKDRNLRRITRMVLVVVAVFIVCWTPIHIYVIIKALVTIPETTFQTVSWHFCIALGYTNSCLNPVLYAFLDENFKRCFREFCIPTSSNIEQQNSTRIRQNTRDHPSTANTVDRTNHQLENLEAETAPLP
T2 sequence (Q12809 whole entry): as the sequence (Q12809 whole entry) above

Compound | effect on blood glucose concentration compared to control [1] | hERG inhibition [%] [2] [%] | toxicology (hits with over 50% inhibition) [9] | inhibition at 10 µM (μ-opioid (MOP) receptor) [%] | further results
4-[(1S,9S)-4-methoxy-17-methyl-17-azatetracyclo[7.5.3.0^1,^10,0^2,^7]heptadeca-2(7),3,5-trien-5-yl]-1-methylpiperazin-2-one [Compound 36] | slightly positive effect | – | – | – | –
COc1cc2c(cc1NC(=O)c1cncn1C)C[C@H]1C3CCCC[C@@]23CCN1C (stereo partly drawn) [Compound 7, N-[(1S,9S)-4-methoxy-17-methyl-17-azatetracyclo[7.5.3.0^1,^10,0^2,^7]heptadeca-2(7),3,5-trien-5-yl]-1-methyl-1H-imidazole-5-carboxamide] | significant effect | 7.9 | – | – | MOP inhibition [%] (μ-opioid (MOP) receptor): 33.7%; glucose-stimulated insulin secretion from mouse pancreatic islets (mouse pancreatic islets [3]): increases the glucose-stimulated insulin secretion; plasma insulin concentrations ([1]; mice, 30 min after i.p. administration together with glucose, FIG. 2): increases plasma insulin concentrations; glucose tolerance ([1]; mice, i.p. glucose tolerance test, 1.5 mg/g BW glucose, i.p. compound, FIG. 2): improves glucose tolerance; plasma insulin concentrations ([4]; 30 min after p.o. administration together with glucose): increases plasma insulin concentrations; glucose tolerance ([4]; oral glucose tolerance test, 1.5 mg/g BW glucose, p.o. compound): improves glucose tolerance; touch sensitivity during mechanical stimulation with Von Frey monofilaments [5]: reduces touch sensitivity; protection from cell death induced by oxidative stress (mouse pancreatic islets [6]): protects mouse pancreatic islets from cell death induced by oxidative stress; protection from streptozotocin-induced cell death (mouse pancreatic islets [7]): protects mouse pancreatic islets from streptozotocin-induced cell death
COc1cc2c(cc1N1CC(N(C)C)C1)C[C@H]1C3CCCC[C@@]23CCN1C (stereo partly drawn) [Compound 35, 1-[(1S,9S)-4-methoxy-17-methyl-17-azatetracyclo[7.5.3.0^1,^10,0^2,^7]heptadeca-2(7),3,5-trien-5-yl]-N,N-dimethylazetidin-3-amine] | slightly positive effect | – | – | – | inhibition at 10 µM [8]: < 15%
COc1ccc2c(c1)[C@]13CCCC[C@@H]1[C@H](C2)N(C)CC3 [DXM, dextromethorphan] | – | 20.9 | 6 | 85 | –
Br.Br.COc1cc2c(cc1-n1ccnc1)C[C@H]1[C@H]3CCCC[C@@]23CCN1C [DXM-2, (9S, 13S, 14S)-2-(1H-Imidazol-1-yl)-3-methoxy-17-methyl morphinan dihydrobromide] | – | 51.8 | 7 | 83.6 | –
